What was measured:
velvetleaf [1] = experiment: Test Example 4: herbicidal effect by soil treatment (Table 19, symbol M); type: in vivo, velvetleaf (Abutilon theophrasti); settings: amount of applied herbicide 320 g/ha
In short: (§1)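 In this soil treatment, the formulated compound reached the seeds only through the soil: seeds were buried about 1.5 cm deep in sterilized diluvial soil, then the diluted emulsion was sprayed over the surface. After three weeks at 25° C. to 30° C. in a greenhouse, effects were graded on criteria from an earlier test.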

false cleavers [2] = experiment: Test Example 4: herbicidal effect by soil treatment (Table 19, symbol Q); type: in vivo, false cleavers (Galium spurium); settings: amount of applied herbicide 320 g/ha
In short: as §1

green foxtail [3] = experiment: Test Example 4: herbicidal effect by soil treatment (Table 19, symbol G); type: in vivo, green foxtail (Setaria viridis); settings: amount of applied herbicide 320 g/ha
In short: as §1

wild oat [4] = experiment: Test Example 4: herbicidal effect by soil treatment (Table 19, symbol I); type: in vivo, wild oat (Avena fatua); settings: amount of applied herbicide 320 g/ha
In short: as §1

persian speedwell [5] = experiment: Test Example 4: herbicidal effect by soil treatment (Table 19, symbol R); type: in vivo, Persian speedwell (Veronica persica); settings: amount of applied herbicide 320 g/ha
In short: as §1

oval-leafed pondweed = experiment: Test Example 1: herbicidal activity, application before weed generation under submerged conditions (Table 16, symbol C); type: in vivo, oval-leafed pondweed (Monochoria vaginalis); settings: 320 g/ha applied herbicide
In short: (§2)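 Alluvial soil was flooded to 4 cm depth, weed seeds were sown mixed and 2.5-leaf rice seedlings were transplanted. On sowing day, the compound's emulsion, diluted in water to a set dose, was applied to the water surface. Plants grew at 25–30 °C and were scored 0–5 after three weeks.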

barnyard grass [6] = experiment: Test Example 4: herbicidal effect by soil treatment (Table 19, symbol H); type: in vivo, barnyard grass (Echinochloa crus-galli); settings: amount of applied herbicide 320 g/ha
In short: as §1

windgrass = experiment: Test Example 4: herbicidal effect by soil treatment (Table 19, symbol L); type: in vivo, windgrass (Apera spica-venti); settings: amount of applied herbicide 320 g/ha
In short: as §1

Italian ryegrass [7] = experiment: Test Example 5: herbicidal effect by foliage application, plastic box (Table 20, symbol K); type: in vivo, Italian ryegrass (Lolium multiflorum); settings: foliage application, 320 g/ha, three weeks after application
In short: (§3)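 Plants were sown into sterilized diluvial soil under about 1.5 cm cover and kept in a greenhouse at 25° C. to 30° C. Fourteen days on, foliage received an even spray of the diluted emulsion. Herbicidal or crop effect was judged three weeks afterwards.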

redroot pigweed [8] = experiment: Test Example 5: herbicidal effect by foliage application, plastic box (Table 20, symbol N); type: in vivo, redroot pigweed (Amaranthus retroflexus); settings: foliage application, 320 g/ha, three weeks after application
In short: as §3

Chinese sprangletop = experiment: Test Example 3: herbicidal effect by foliage application, Wagner pot (Table 18, symbol D); type: in vivo, chinese sprangletop (Leptochloa chinensis); settings: 320 g/ha
In short: (§4)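 Plants were sown in alluvial soil held under 0.1–0.5 cm standing water and grown 14 days in a greenhouse at 25–30 °C. An emulsifiable formulation, water-diluted to the set dose, was then sprayed onto the foliage, and effects were scored three weeks later using previously defined criteria.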

chickweed [9] = experiment: Test Example 4: herbicidal effect by soil treatment (Table 19, symbol P); type: in vivo, common chickweed (Stellaria media); settings: amount of applied herbicide 320 g/ha
In short: as §1

lambsquarters [10] = experiment: Test Example 5: herbicidal effect by foliage application, plastic box (Table 20, symbol O); type: in vivo, lambsquarters (Chenopodium album); settings: foliage application, 320 g/ha, three weeks after application
In short: as §3

wild oat [11] = experiment: Test Example 5: herbicidal effect by foliage application, plastic box (Table 20, symbol I); type: in vivo, wild oat (Avena fatua); settings: foliage application, 320 g/ha, three weeks after application
In short: as §3

southern crabgrass [12] = experiment: Test Example 4: herbicidal effect by soil treatment (Table 19, symbol F); type: in vivo, southern crabgrass (Digitaria ciliaris); settings: amount of applied herbicide 320 g/ha
In short: as §1

southern crabgrass [13] = experiment: Test Example 5: herbicidal effect by foliage application, plastic box (Table 20, symbol F); type: in vivo, southern crabgrass (Digitaria ciliaris); settings: foliage application, 320 g/ha, three weeks after application
In short: as §3

redroot pigweed [14] = experiment: Test Example 4: herbicidal effect by soil treatment (Table 19, symbol N); type: in vivo, redroot pigweed (Amaranthus retroflexus); settings: amount of applied herbicide 320 g/ha
In short: as §1

velvetleaf [15] = experiment: Test Example 5: herbicidal effect by foliage application, plastic box (Table 20, symbol M); type: in vivo, velvetleaf (Abutilon theophrasti); settings: foliage application, 320 g/ha, three weeks after application
In short: as §3

blackgrass [16] = experiment: Test Example 5: herbicidal effect by foliage application, plastic box (Table 20, symbol J); type: in vivo, blackgrass (Alopecurus myosuroides); settings: foliage application, 320 g/ha, three weeks after application
In short: as §3

persian speedwell [17] = experiment: Test Example 5: herbicidal effect by foliage application, plastic box (Table 20, symbol R); type: in vivo, Persian speedwell (Veronica persica); settings: foliage application, 320 g/ha, three weeks after application
In short: as §3

late watergrass = experiment: Test Example 1: herbicidal activity, application before weed generation under submerged conditions (Table 16, symbol A); type: in vivo, late watergrass (Echinochloa oryzicola); settings: 320 g/ha applied herbicide
In short: as §2

lambsquarters [18] = experiment: Test Example 4: herbicidal effect by soil treatment (Table 19, symbol O); type: in vivo, lambsquarters (Chenopodium album); settings: amount of applied herbicide 320 g/ha
In short: as §1

barnyard grass [19] = experiment: Test Example 3: herbicidal effect by foliage application, Wagner pot (Table 18, symbol H); type: in vivo, barnyard grass (Echinochloa crus-galli); settings: 320 g/ha
In short: as §4

Japanese bulrush = experiment: Test Example 1: herbicidal activity, application before weed generation under submerged conditions (Table 16, symbol B); type: in vivo, Japanese bulrush (Schoenoplectus juncoides); settings: 320 g/ha applied herbicide
In short: as §2

false cleavers [20] = experiment: Test Example 5: herbicidal effect by foliage application, plastic box (Table 20, symbol Q); type: in vivo, false cleavers (Galium spurium); settings: foliage application, 320 g/ha, three weeks after application
In short: as §3

rice flat sedge = experiment: Test Example 3: herbicidal effect by foliage application, Wagner pot (Table 18, symbol E); type: in vivo, rice flat sedge (Cyperus iria); settings: 320 g/ha
In short: as §4

green foxtail [21] = experiment: Test Example 5: herbicidal effect by foliage application, plastic box (Table 20, symbol G); type: in vivo, green foxtail (Setaria viridis); settings: foliage application, 320 g/ha, three weeks after application
In short: as §3

Italian ryegrass [22] = experiment: Test Example 4: herbicidal effect by soil treatment (Table 19, symbol K); type: in vivo, Italian ryegrass (Lolium multiflorum); settings: amount of applied herbicide 320 g/ha
In short: as §1

blackgrass [23] = experiment: Test Example 4: herbicidal effect by soil treatment (Table 19, symbol J); type: in vivo, blackgrass (Alopecurus myosuroides); settings: amount of applied herbicide 320 g/ha
In short: as §1

barnyard grass [24] = experiment: Test Example 5: herbicidal effect by foliage application, plastic box (Table 20, symbol H); type: in vivo, barnyard grass (Echinochloa crus-galli); settings: foliage application, 320 g/ha, three weeks after application
In short: as §3

chickweed [25] = experiment: Test Example 5: herbicidal effect by foliage application, plastic box (Table 20, symbol P); type: in vivo, common chickweed (Stellaria media); settings: foliage application, 320 g/ha, three weeks after application
In short: as §3

## CCCC(=O)Oc1c(C)nn(C)c(=O)c1-c1c(-c2ccc(C(C)=O)cc2)sc2ccccc12 [1-042]
Velvetleaf [1]
  herbicidal effect rating, M: velvetleaf: 3 (Herbicidal rate of 40% or more and less than 70%)
False cleavers [2]
  herbicidal effect rating, Q: false cleavers: 0 (Herbicidal rate of 5% or less (almost no effect))
Green foxtail [3]
  herbicidal effect rating, G: green foxtail: 3 (Herbicidal rate of 40% or more and less than 70%)
Wild oat [4]
  herbicidal effect rating, I: wild oat: 0 (Herbicidal rate of 5% or less (almost no effect))
Persian speedwell [5]
  herbicidal effect rating, R: persian speedwell: 5 (Herbicidal rate of 90% or more (almost completely withered))
oval-leafed pondweed
  Herbicidal effect on C: oval-leafed pondweed (grade 0-5): 3 (Herbicidal rate of 40% or more and less than 70%)
Barnyard grass [6]
  herbicidal effect rating, H: barnyard grass: 0 (Herbicidal rate of 5% or less (almost no effect))
windgrass
  herbicidal effect rating, L: windgrass: 0 (Herbicidal rate of 5% or less (almost no effect))
Italian ryegrass [7]
  herbicidal effect grade, K: Italian ryegrass: 4 (Herbicidal rate of 70% or more and less than 90%)
Redroot pigweed [8]
  herbicidal effect grade, N: redroot pigweed: 4 (Herbicidal rate of 70% or more and less than 90%)
Chinese sprangletop
  herbicidal effect on D (Chinese sprangletop), rating 0-5: 0 (Herbicidal rate of 5% or less (almost no effect))
Chickweed [9]
  herbicidal effect rating, P: chickweed: 4 (Herbicidal rate of 70% or more and less than 90%)
Lambsquarters [10]
  herbicidal effect grade, O: lambsquarters: 3 (Herbicidal rate of 40% or more and less than 70%)
Wild oat [11]
  herbicidal effect grade, I: wild oat: 0 (Herbicidal rate of 5% or less (almost no effect))
Southern crabgrass [12]
  herbicidal effect rating, F: southern crabgrass: 2 (Herbicidal rate of 20% or more and less than 40%)
Southern crabgrass [13]
  herbicidal effect grade, F: southern crabgrass: 3 (Herbicidal rate of 40% or more and less than 70%)
Redroot pigweed [14]
  herbicidal effect rating, N: redroot pigweed: 5 (Herbicidal rate of 90% or more (almost completely withered))
Velvetleaf [15]
  herbicidal effect grade, M: velvetleaf: 5 (Herbicidal rate of 90% or more (almost completely withered))
Blackgrass [16]
  herbicidal effect grade, J: blackgrass: 0 (Herbicidal rate of 5% or less (almost no effect))
Persian speedwell [17]
  herbicidal effect grade, R: persian speedwell: 5 (Herbicidal rate of 90% or more (almost completely withered))
Late watergrass
  Herbicidal effect on A: late watergrass (grade 0-5): 3 (Herbicidal rate of 40% or more and less than 70%)
Lambsquarters [18]
  herbicidal effect rating, O: lambsquarters: 3 (Herbicidal rate of 40% or more and less than 70%)
Barnyard grass [19]
  herbicidal effect on H (barnyard grass), rating 0-5: 3 (Herbicidal rate of 40% or more and less than 70%)
Japanese bulrush
  Herbicidal effect on B: Japanese bulrush (grade 0-5): 4 (Herbicidal rate of 70% or more and less than 90%)
False cleavers [20]
  herbicidal effect grade, Q: false cleavers: 2 (Herbicidal rate of 20% or more and less than 40%)
Rice flat sedge
  herbicidal effect on E (rice flat sedge), rating 0-5: 5 (Herbicidal rate of 90% or more (almost completely withered))
Green foxtail [21]
  herbicidal effect grade, G: green foxtail: 3 (Herbicidal rate of 40% or more and less than 70%)
Italian ryegrass [22]
  herbicidal effect rating, K: Italian ryegrass: 3 (Herbicidal rate of 40% or more and less than 70%)
Blackgrass [23]
  herbicidal effect rating, J: blackgrass: 0 (Herbicidal rate of 5% or less (almost no effect))
Barnyard grass [24]
  herbicidal effect grade, H: barnyard grass: 3 (Herbicidal rate of 40% or more and less than 70%)
Chickweed [25]
  herbicidal effect grade, P: chickweed: 5 (Herbicidal rate of 90% or more (almost completely withered))

— US20230085307A1, “PYRIDAZINONE COMPOUND AND HERBICIDE” (NISSAN CHEMICAL CORPORATION, priority 2019, published 2023)
